Assay results: patent US20250264397A1, “Light-field Flow Cytometer” (Georgia Tech Research Corporation, priority 2024, published 2025)

Test system: Jurkat cells
Experiment: Jurkat cell apoptosis induced by staurosporine (STS) treatment, imaged by light-field flow cytometry (LFC)
Assay type: cell-based, human
Settings: 1-μM STS
Experimental: Jurkat cell apoptosis induced by staurosporine (STS) treatment and staining. Jurkat T cells (e.g., #88042803, Sigma-Aldrich) were cultured in RPMI with 10% FBS and 1% Pen-Strep as a modified RPMI medium at 37° C. and in a 5% CO2 environment. On the imaging day, 1 μM of STS was added to 4 cell dishes, incubating for 30, 60, 120, and 300 min, respectively, at 37° C. The following procedures for preparing cells in the 4 dishes were the same. After the treatment, cells were centrifuged (e.g., 500× g, 6 min, 37° C.) and resuspended into the modified RPMI medium. After two rounds of centrifuge-washing, cells were resuspended into 6 mL of modified RPMI medium. For fluorescence labeling, 250 nM of SYTO16 green stains were added to the culture dish, and the cells were incubated for 1 hour. At the halfway of incubation (30 min), 150 nM of Mito Tracker Deep Red FM stains were added to the culture dish. After another 30 min, cells were centrifuged (e.g., 500× g, 6 min, 37° C.) and resuspended into 6 mL of the 4% PFA fixation buffer. Cells were fixed at room temperature for 12 min. After fixation, cells were centrifuged (800× g, 6 min, room temperature) and resuspended into PBS twice. Finally, cells were stored in PBS for imaging flow cytometry.
Imaging morphological changes in staurosporine-treated Jurkat cells. […]

CN[C@@H]1C[C@H]2O[C@@](C)([C@@H]1OC)n1c3ccccc3c3c4c(c5c6ccccc6n2c5c31)C(=O)NC4 [Staurosporine]
cells showed apoptotic nuclei (after 5 h of treatment): over 53%
Jurkat cell nuclear morphology (with the treatment period increased (30, 60, 120, 300 min)): reduced volumes and fragmented micronuclei
